Laboratory results from US20120214846A1, “HEXAHYDROCYCLOPENTYL[F]INDAZOLE PYRIDYL ETHANOLS AND DERIVATIVES THEREOF AS SELECTIVE GLUCOCORTICOID RECEPTOR MODULATORS” (MERCK SHARP & DOHME CORP, priority 2009, published 2012).
Converted amounts (≈) assume the structure as drawn. Where two headings read alike, the source gives them in different places.

Key:
Solubility at pH 2 = type: physicochemical
[1] = test system: female Sprague-Dawley rats, oxazolone (OX) contact dermatitis; test: In Vivo Inflammation Assay (oxazolone contact dermatitis model); parameters: key to Inflammation Assay Glucose Effect / GL *: +: the glucose level increased compared to vehicle; −: the glucose level decreased compared to vehicle; settings: for Inflammation Assay Glucose Effect / Inflammation Assay Anti-inflammatory Effect: rat; for Inflammation Assay Glucose Effect: glucose level compared to vehicle; for Inflammation Assay Anti-inflammatory Effect: relative to control compound; for GL *: Table 4, literature compounds, glucose effect
Procedure: In Vivo Inflammation Assay
Intact adult (6 month old) female Sprague-Dawley rats are used in the oxazolone (OX) contactdermatitis model. Rats were sensitized on the ventral abdomen with OX on Day 0. On Days 7 and 9, a randomly-selected ear was challenged (same ear each time) with OX; the other was treated with vehicle. Daily treatment begun on Day 7 and continued for 7d with test compounds at different doses and 1.3 mpk 6-methlyprednisolone or 0.1 mpk DEX as positive controls. The thickness of both ears are measured on Days 11 and 14. Necropsy occurred on Day 14. The rat is first weighed, then anesthetized in a CO2 chamber until near death. Approximately 5 ml whole blood is obtained by cardiac puncture. The rat is then examined for certain signs of death and completeness. Tissues are dissected in a highly stylized fashion. Then the following endpoints were evaluated: a) inhibiting ear inflammation induced by oxazalone, b) raising serum insulin, c) reducing serum ACTH, d) reducing spleen weight, e) reducing skin thickness, f) reducing body weight, g) increasing expression of bone-related genes with potential relationship to negative glucocorticoid effects on bone; e) changes in molecular markers that correlate with skin inflammation, skin thinning, muscle atrophy and glucose metabolism in liver. All blood samples were collected between 1330-1530 hours, ˜4-5 hrs after the last compound treatment.
Primary data for this assay are left and right ear thickness. Inter-ear thickness difference (etd) is used for the estimating the level of inflammation and effectiveness of the compounds is determined by their ability to reduce the increase the thickness of the inflamed ear. Back of the rat skin thickness, spleen weight, serum insulin as well as the effects of gcs on the expression of molecular markers in skin inflammation, skin atrophy, muscle atrophy and glucose metabolism in liver are measured. Data are analyzed by anova plus fisher plsd post-hoc test to identify intergroup differences.

GR = biological target: T1, GR (Homo sapiens, UniProt P04150); test: Trans-Activation Modulation of Glucocorticoid Receptor Assay (GRAMMER), MMTV-LUC reporter, A549 cells; type: cell-based; parameters: endogenous in cells
T1 sequence (P04150 1-777): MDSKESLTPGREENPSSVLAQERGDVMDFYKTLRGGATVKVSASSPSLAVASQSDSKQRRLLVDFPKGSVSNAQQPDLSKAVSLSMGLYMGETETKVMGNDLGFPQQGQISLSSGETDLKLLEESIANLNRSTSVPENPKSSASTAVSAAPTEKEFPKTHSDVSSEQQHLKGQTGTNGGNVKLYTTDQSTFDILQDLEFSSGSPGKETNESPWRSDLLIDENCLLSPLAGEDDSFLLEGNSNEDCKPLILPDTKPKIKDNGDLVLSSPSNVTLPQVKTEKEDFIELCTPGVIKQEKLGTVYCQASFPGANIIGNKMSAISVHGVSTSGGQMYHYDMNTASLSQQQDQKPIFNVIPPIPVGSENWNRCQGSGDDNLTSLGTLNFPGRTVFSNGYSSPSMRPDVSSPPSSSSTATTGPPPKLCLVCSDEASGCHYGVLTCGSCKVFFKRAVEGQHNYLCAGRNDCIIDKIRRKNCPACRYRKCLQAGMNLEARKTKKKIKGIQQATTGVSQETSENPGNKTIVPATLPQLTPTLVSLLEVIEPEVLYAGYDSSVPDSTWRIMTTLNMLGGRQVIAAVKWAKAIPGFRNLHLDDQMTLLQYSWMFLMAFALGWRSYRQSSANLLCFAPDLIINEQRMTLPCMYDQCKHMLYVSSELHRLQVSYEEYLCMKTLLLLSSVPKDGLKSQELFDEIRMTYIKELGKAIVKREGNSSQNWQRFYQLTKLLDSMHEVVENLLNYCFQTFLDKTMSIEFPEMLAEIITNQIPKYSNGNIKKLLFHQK
From the text: Trans-Activation Modulation of Glucocorticoid Receptor Assay
This assay assesses the ability of test compounds to control transcription from the MMTV-LUC reporter gene in lung adenocarcinoma A549 cells or HeLa cells, a human […] cell line that naturally expresses the human GR. The assay measures induction of a modified MMTV LTR/promoter linked to the LUC reporter gene.
The routine transient assay consists of plating 7,000-25,000 cells/well of a white, clear-bottom 96-well plate. Alternatively, 384-well plates can be used at a cell concentration of 10,000/well. The media that the cells are plated in is “exponential growth medium” which consists of phenol red-free RPMI1640 containing 10% FBS, 4 mM L-glutamine, 20 mM HEPES, 10 ug/mL human insulin, and 20 ug/mL gentamicin. Incubator conditions are 37° C. and 5% CO2. The transfection is done in batch mode. The cells are trypsinized and counted to the right cell number in the proper amount of fresh media. It is then gently mixed with the FuGene6/DNA mix and plated onto the 96 or 384-well plate, all the wells receive 100 uL or 40 uL, respectively, of medium+lipid/DNA complex then incubated 37° C. overnight. The transfection cocktail consists of serum-free OptiMEM, FuGene6 reagent and DNA. The manufacturer's (Roche Biochemical) protocol for cocktail setup is as follows: The lipid to DNA ratio is approximately 2.5:1 and the incubation time is 20 min at room temperature. Sixteen to 24 hours after transfection, the cells are treated with dexamethasone to a final concentration of 10 nM as well as the compound of interest, such that final DMSO (vehicle) concentration is equal to or less than 1%. Each plate also contains samples that are treated with 10 nM dexamethasone alone, which is used as the 100% activity control. The cells are exposed to the compounds for 24 hours. After 24 hours, the cells are lysed by a Promega cell culture lysis buffer for approximately 30 min and then the luciferase activity in the extracts is assayed in the 96-well format luminometer. In 384-well format, Steady-Glo (Promega) or Steady-Lite (PerkinElmer) can be used by adding an equal volume of reagent to the media present in each well. […] Antagonist activity is calculated by determining the decrease in dexamethasone-induced activity in response to compound treatment relative to samples that were treated with dexamethasone alone. […] This transactivation assay can be performed in an agonist and antagonist mode to identify these different activities.
The action of compounds is also tested in an antagonist mode (Anti-GRAMMER) in which the cells are treated with medium containing an agonist such as 10 nM DEX and the ability to agents to inhibit the activation by an agonist is measured.

[2] = pH 2, aqueous buffer, pH 2, read-out: Solubility At pH 2
[3] = A549 cells, inflection point, read-out: Transactivation A549 Cells GRAMMER IP
[4] = A549 cells, relative to 300 nM dexamethasone
[5] = A549, A549 cells, relative to 300 nM dexamethasone, read-out: Transactivation A549 Cells GRAMMER Emax
[6] = pH 2, read-out: Solubility At pH 2
[7] = A549, Table 4, literature compounds, read-out: GRAMMER EMAX
[8] = Table 4, literature compounds, read-out: GRAMMER IP

EC50 (GR; [3])	Emax (GR; [5])	solubility (Solubility at pH 2; [6])	SMILES	Inflammation Assay Glucose Effect [1]	Transactivation A549 Cells GRAMMER Emax (GR; [4])	further results
52.1 nM	15.1%	18 µM (≈ 8.52 µg/mL)	C[C@]12Cc3cnn(-c4ccc(F)cc4)c3C=C1CC[C@@]2(O)CC(O)c1cc(C(F)(F)F)ccn1 (single isomer, unassigned) [Example 5a]			
158 nM		3 µM (≈ 1.42 µg/mL)	C[C@]12Cc3cnn(-c4ccc(F)cc4)c3C=C1CC[C@@]2(O)CC(O)c1cc(C(F)(F)F)ccn1 (single isomer, unassigned) [Example 5b]		18.1%	
320 nM	18.6%		C[C@]12Cc3cnn(-c4ccc(F)cc4)c3C=C1CC[C@@]2(O)CC(O)c1ccc(F)cn1 (single isomer, unassigned) [Example 7a]			solubility (Solubility at pH 2; [2]): 64 µM (≈ 27.1 µg/mL)
85.5 nM		35 µM (≈ 14.8 µg/mL)	C[C@]12Cc3cnn(-c4ccc(F)cc4)c3C=C1CC[C@@]2(O)CC(O)c1ccc(F)cn1 (single isomer, unassigned) [Example 7b]		16.6%	
17.4 nM		7 µM (≈ 3.39 µg/mL)	C[C@]12Cc3cnn(-c4ccc(F)cc4)c3C=C1CC[C@@]2(O)CC(O)c1cc(Br)ccn1 (single isomer, unassigned) [Example 10a]		8.2%	
80 nM		2 µM (≈ 0.969 µg/mL)	C[C@]12Cc3cnn(-c4ccc(F)cc4)c3C=C1CC[C@@]2(O)CC(O)c1cc(Br)ccn1 (single isomer, unassigned) [Example 10b]		19.8%	
			C[C@]12Cc3cnn(-c4ccc(F)cc4)c3C=C1CC[C@@]2(O)C#Cc1ccccc1 [Ex. 1 WO 04/075840 A2, reference compound]			solubility (Solubility at pH 2; Table 4, literature compounds): poor; GL * [1]: −; Emax (GR; [7]): 6.19%; EC50 (GR; [8]): 385 nM
			C[C@]12Cc3cnn(-c4ccc(F)cc4)c3C=C1CCC[C@@H]2[C@@H](O)Cc1ccccc1 [Ex. 22 WO 03/086294 A2, reference compound]			solubility (Solubility at pH 2; Table 4, literature compounds): poor; GL * [1]: −; Emax (GR; [7]): 61%; EC50 (GR; [8]): 122 nM
			C[C@]12Cc3cnn(-c4ccc(F)cc4)c3C=C1CCC[C@@H]2[C@@H](O)CCc1ccccc1 [Ex. 30 WO 03/086294 A2, reference compound]			solubility (Solubility at pH 2; Table 4, literature compounds): poor; GL * [1]: −; Emax (GR; A549, read-out: GRAMMER EMAX): 48.8%; EC50 (GR; GRAMMER IP, Table 4, literature compounds): 166 nM
698 nM	17.5%		C[C@]12Cc3cnn(-c4ccc(F)cc4)c3C=C1CC[C@@]2(O)CC(O)c1ncccc1F (stereo partly drawn) [Example 4, (4αS,5R)-1-(4-fluorophenyl)-5-[2-(3-fluoropyridin-2-yl)-2-hydroxyethyl]-4α-methyl-1,4,4α,5,6,7-hexahydrocyclopenta[f]indazol-5-ol]			solubility (Solubility at pH 2; [2]): < 1 µM
328 nM	18.6%		C[C@]12Cc3cnn(-c4ccc(F)cc4)c3C=C1CC[C@@]2(O)CC(O)c1ccc(C(F)(F)F)cn1 (stereo partly drawn) [Example 6, (4αS,5R)-1-(4-fluorophenyl)-5-{2-hydroxy-2-[5-(trifluoromethyl)pyridin-2-yl]ethyl}-4α-methyl-1,4,4α,5,6,7-hexahydrocyclopenta[f]indazol-5-ol]			solubility (Solubility at pH 2; [2]): 4 µM (≈ 1.89 µg/mL)

SMILES	EC50 (GR; [3])	Emax (GR; [5])	solubility (Solubility at pH 2; [6])	Inflammation Assay Glucose Effect [1]	Transactivation A549 Cells GRAMMER Emax (GR; [4])	further results
Cc1cccnc1C(O)C[C@]1(O)CCC2=Cc3c(cnn3-c3ccc(F)cc3)C[C@@]21C (single isomer, unassigned) [Example 1a]	116 nM			−	64.8%	solubility (Solubility at pH 2; [2]): 148 µM (≈ 62.1 µg/mL); Inflammation Assay Anti-inflammatory Effect [1]: + (the anti-inflammatory activity was equal to or greater than 40% of the effect generated by the control compound)
Cc1cccnc1C(O)C[C@]1(O)CCC2=Cc3c(cnn3-c3ccc(F)cc3)C[C@@]21C (single isomer, unassigned) [Example 1b]	236 nM			+	27.4%	
C[C@]12Cc3cnn(-c4ccc(F)cc4)c3C=C1CC[C@@]2(O)CC(O)c1ccccn1 (single isomer, unassigned) [Example 2a]	346 nM	23.1%		−		solubility (Solubility at pH 2; [2]): 105 µM (≈ 42.6 µg/mL); Inflammation Assay Anti-inflammatory Effect [1]: + (the anti-inflammatory activity was equal to or greater than 40% of the effect generated by the control compound)
C[C@]12Cc3cnn(-c4ccc(F)cc4)c3C=C1CC[C@@]2(O)CC(O)c1ccccn1 (single isomer, unassigned) [Example 2b]	255 nM		192 µM (≈ 77.9 µg/mL)	−	26.8%	Inflammation Assay Anti-inflammatory Effect [1]: + (the anti-inflammatory activity was equal to or greater than 40% of the effect generated by the control compound)
C[C@]12Cc3cnn(-c4ccc(F)cc4)c3C=C1CC[C@@]2(O)CC(O)c1cc(Cl)ccn1 (single isomer, unassigned) [Example 8a]	129 nM	21.4%	<1 µM	+		Inflammation Assay Anti-inflammatory Effect [1]: + (the anti-inflammatory activity was equal to or greater than 40% of the effect generated by the control compound)
C[C@]12Cc3cnn(-c4ccc(F)cc4)c3C=C1CC[C@@]2(O)CC(O)c1cc(Cl)ccn1 (single isomer, unassigned) [Example 8b]	26.7 nM		119 µM (≈ 52.4 µg/mL)	+	25.2%	Inflammation Assay Anti-inflammatory Effect [1]: + (the anti-inflammatory activity was equal to or greater than 40% of the effect generated by the control compound)
